Experimental data as given in a melting point compilation (Tetko et al.; mined from patent text by program, amines drawn as free bases though some values may be those of a salt).

Structure (SMILES) | melting point [°C]
CCOC(=O)c1ccc(CCNc2ncnc(CC)c2Cl)cc1 | 134 to 135
C[C@@H](N1CCN(c2ccc(OCC(F)(F)C(F)(F)F)cc2)C1=O)[C@@]1(c2ccc(F)cc2F)CO1 | 141 to 144
Cc1ccc(-c2cc(C(=O)/C=C/c3ccc(C(=O)O)cc3)cc3c2C(C)(C)CCC3(C)C)cc1 | 242
COc1cncnc1N1CCN(CCCc2c[nH]c3ccc([N+](=O)[O-])cc23)CC1 | 163 to 166
CCOCC1COc2ccc(N)cc2O1 (centres undefined) | 103 to 106
CC=C(Cl)C(Cl)CC(O)(Cn1cncn1)C1(Cl)CC1 (centres undefined) | 79 to 80
CC1=C(C(=O)OCCN(C)Cc2ccccc2)C(c2cccc([N+](=O)[O-])c2)C(P(=O)(OC(C)C)OC(C)C)=C(C)N1 (centres undefined) | 113 to 115
CS(=O)(=O)c1ccc2[nH]cc(CCN)c2c1 | 134 to 138
CCCN(CCC)C(=O)CNc1nc(-c2ccccc2)nc(C)c1C | 79 to 80
CC1CC(=O)NN=C1c1ccc(NC(=O)C(C)OS(C)(=O)=O)cc1 (centres undefined) | 110 to 112
COC(=O)CCc1ccc(N2CCN(CCCCC#N)C2=O)cc1 | 99 to 101
CCOC(=O)c1ccc(-c2cccc(OCc3ccc(COC(=O)c4ccccc4)c(COC(=O)c4ccccc4)c3)c2)nc1 | 118 to 120
CCCCc1nc(C(=O)C(C)C)c(C#N)n1Cc1ccc(-c2ccccc2-c2nnnn2C(c2ccccc2)(c2ccccc2)c2ccccc2)cc1 | 115 to 116
CCCCN(CCCC)c1ccc(C(C#N)=c2ccc(=C(C#N)C#N)cc2)c(OC)c1 | 215 to 238
CC1(C)CN=C(Cc2ccc(Cl)cc2)NC1 | 130 to 132
COC(=O)C(Oc1cc(OCc2ccsc2)ccc1C#N)c1ccccc1Cl (racemic) | 102 to 104
COc1ccc2c(c1)OC(C)(C)C(NC(=O)c1cc(F)ccc1OC)C2=O (centres undefined) | 143 to 144
O=C(NC1CSc2ccccc2NC1=O)OCc1ccccc1 (centres undefined) | 149 to 151
Cc1ccc(Oc2c(-c3ccc(S(C)(=O)=O)cc3)oc(C(F)F)cc2=O)cc1 | 160
CC(C)c1cc(NC(=O)N2CCN(c3ccnc(-c4cccc(F)c4F)n3)CC2)nnc1Cl | 192 to 193
CCCC(=O)OC(C)OC(=O)Nc1ccc(Cl)cc1 (centres undefined) | 52 to 54
CSC(=S)Nc1ccccc1N | 114
CCOC(=O)c1c(C(C)C)c2ccccn2c1-c1ccc(F)cc1 | 51 to 52
CSc1ccc(C=C2CCc3cc(OCCn4ccnc4)ccc3C2=O)s1 | 102 to 104
CCOC(=O)c1cn2c(cc(OC(C)C)c3ccc(Cl)cc32)n1 | 187 to 189

Structure (SMILES) | melting point [°C]
CCCCC[C@H]1CC[C@H](c2ccc(C#C[Si](C)(C)C)nn2)CC1 | 118 to 119
O=C(CN1CCC(NC(=O)c2ccccc2)CC1)c1ccccc1 | 168
Clc1ccc(Nc2nnc(OCc3ccncc3)c3ccccc23)cc1 | 139 to 141
COc1cc2c(cc1C)C(CCCN1CCN(C)CC1)(c1ccccc1F)C(=O)N2S(=O)(=O)c1ccc(OC(C)C)cc1 (centres undefined) | 70
Cc1nc(C)c(Cl)c(NCc2ccc(OCCn3c([N+](=O)[O-])cnc3C)cn2)n1 | 182 to 184
COCc1c(C(=O)OC(C)C)ncc2[nH]c3cccc(Oc4ccc(Cl)cn4)c3c12 | 190 to 191
O=C(O)C1=Cc2cc(Cl)c(Oc3cccc(Cl)n3)cc2OC1C(F)(F)F (centres undefined) | 226 to 227
CSC1=NC(C)(C)CCC(C)(C)N1 | 200 to 205
CCN1C(=O)N(c2ccc([N+](=O)[O-])c(C(F)(F)F)c2)C(=O)C1(C)C | 110 to 111
COc1cc(-c2cn(Cc3ccccc3)c(=O)c3ccccc23)ccc1O | 165 to 167
O=C(O)c1ccc(C(=O)O)c(O)c1 | > 300
COc1ccc(-c2cc(-c3ccccc3)[nH]c2C(=O)Nc2cccc(CC(=O)NO)c2)cc1 | 205 to 206
CCCCCCCCCCCCCCCCCNC(=O)O[C@@H]1CCO[C@H]1CO (relative stereo) | 77 to 78
CCOC(=O)CN(C)C(=S)CCc1nc2c(F)c(F)cc(F)c2s1 | 83 to 85
O=C(NC[C@H]1CC[C@@H](Oc2ccc(F)cc2)CC1)c1ccc(O)cc1 | 170
OCCn1ccc(NC(=S)NCC(F)(F)F)n1 | 145 to 146
CC1=C(C(=O)N2CCCCC2)C(c2ccccc2[N+](=O)[O-])C(S(C)(=O)=O)=C(C)N1 (centres undefined) | 275 to 276
CCC(CC)c1ccc(C(F)(F)F)c2nc(Oc3c(C)cc(Cl)cc3Cl)n(C)c12 | 149 to 151
CC1c2ccccc2Cn2cc3c(c21)C(=O)c1ccccc1C3=O (centres undefined) | 215 to 218
O=C(O)c1cc(OCc2ccccc2)cc([N+](=O)[O-])c1 | 157 to 158
c1ccc(-c2ccc(OCC3CO3)cc2)cc1 (centres undefined) | 80.2 to 82.9
COc1cc(Nc2c(C#N)cnc3cc(-c4coc(C=O)c4)c(OC)cc23)c(Cl)cc1Cl | 238 to 241
O=C(c1ccccc1)c1c(Cl)cc(CBr)cc1Cl | 111 to 113
CNc1nc(C(C)c2ccc(-c3ccccc3)c(F)c2)c(C=O)s1 (centres undefined) | 126 to 128
Cc1nn(-c2c(Cl)cc(C(F)(F)F)cc2Cl)c(C)c1-c1nc(C#N)c(C#N)[nH]1 | 80 to 83

Structure (SMILES) | melting point [°C]
COc1ccc(N2CCN(c3ccc(NC(=O)Oc4ccccc4)cn3)CC2)cc1 | 197 to 198
Cc1ccc(C(=O)Nc2ccccc2O)c(F)c1 | 195 to 197
Cc1cc(-c2nnc3c4cccnc4c(OCc4ncnn4C)nn23)no1 | 255 to 257
COC(=O)c1cccc2c1CCC2C#N (centres undefined) | 76.5 to 77.5
O=C1C(=O)N(c2cccc3ccccc23)C(=O)N1c1ccc(Cl)cc1 | 158
CCCCn1c(=O)c2cc(C(=O)O)cn2c2cc(Cl)ccc21 | 275 to 276
CCOC(=O)C1=C(C)Nc2n[nH]cc2C1c1cccc2nonc12 (centres undefined) | 228
CCN1C(=O)Cc2cc(C(=O)c3ccccc3)ccc21 | 134 to 136
CC(C)c1cccc(C(C)C)c1NC(=O)CC(=O)C(c1ccccc1)c1ccccc1 | 153 to 155
C1CC(C23CSC(SC2)SC3)C1 | 112 to 114
CCn1c2cc(C)ccc2c2c3ccccc3ccc21 | 123 to 124
Cn1ncc2[nH]c3ccc(Cc4ccc(C#N)cc4)cc3c(=O)c21 | 291
O=C1Nc2ccccc2N(C(=O)N2CCCC(CCN3CCCCC3)C2)c2ncccc21 (centres undefined) | 168 to 169
CCC1Cc2cc(OCC(=O)O)c(Cl)c(Cl)c2C1O (centres undefined) | 121 to 122
Cc1ccsc1C(Cc1cc(Br)ccc1N)N(C)C (centres undefined) | 96 to 98
OC[C@@H](O)c1ccccc1Cl | 39
COc1ccc(-c2cc3ccc(OC)cc3[nH]2)cc1 | 228 to 230
O=C(O)[C@H]1CC[C@H](N2CCC(Oc3ccc(Cl)c(Cl)c3)CC2)CC1 | 167 to 168
CCC(C)(Cc1c[nH]c2ccccc12)NC=O (centres undefined) | 122 to 124
CC(=O)CS(=O)CCc1ccc2c(c1)OCO2 (centres undefined) | 82 to 84.5
CCC1(C)OC(=O)C(c2ccccc2)C(=O)O1 (centres undefined) | 135 to 136
O=C(OCCO)c1nc(Cl)c(Cl)[nH]1 | 170
O=C(O)COc1ccc(-c2nn(-c3ccccc3)c3ncccc23)cc1 | 220 to 222
Cc1cn2c(C(F)(F)F)nnc2c2ccccc12 | 162 to 164
O=C1NC(=O)N(CCCc2ccccc2)C1O (centres undefined) | 131 to 132

Structure (SMILES) | melting point [°C]
O=C1c2ccc([N+](=O)[O-])cc2C(=O)N1CCSc1ccccc1 | 120 to 121
CCCc1c(O)ccc2c1OC(C)(CCC(=O)O)CC2=O (centres undefined) | 152 to 153
O=C(Nc1nc(C(F)(F)C(F)(F)F)c(I)s1)c1cc(C(F)(F)F)cc(C(F)(F)F)c1 | 143 to 144
OCC1OC(n2cnc3c(NC4CCCCC4)ncnc32)C(O)C1O (centres undefined) | 185 to 187
C=C(C)COc1ccc(C(=O)C=Cc2c(Cl)cccc2Cl)c2oc3ccccc3c(=O)c12 | 135 to 137
CCOC(=O)COc1ccc(OCC)cc1C(Nc1ccc(C(=N)NC(=O)OC(C)(C)C)cc1)C(=O)OCC (racemic) | 241
CCCc1[nH]c2cc(C(=O)OC)ccc2c1C(=O)COC | 127 to 129
CCOc1cc([C@@H](CCN(C=O)OC(C)=O)N2Cc3cccc(NC(=O)C(C)C)c3C2=O)ccc1OC | 72 to 74
O=C(O)Cc1cnc(Cc2ccc(NC(=O)c3ccc(Cl)c(Cl)c3)cc2)n2ccnc12 | 185 to 188
CC(=O)Nc1cc(Br)ccc1Sc1ccc([N+](=O)[O-])cc1[N+](=O)[O-] | 194 to 196
C[C@H](Nc1nc(Nc2cccc(NS(C)(=O)=O)c2)nc2[nH]cnc12)c1ccccc1 | 136 to 139
COc1ccc(O)c(CSc2nc(C)cn2C)c1 | 111 to 112
CCC(=O)NN=C(c1ccc(Cl)cc1)c1ccc(OS(C)(=O)=O)cc1 | 128 to 144
COC(=O)C=Cc1ccc(OCCn2c(=O)sc3cc(C(=O)c4ccccc4)ccc32)cc1 | 144 to 146
O=S(=O)(Cl)c1sc(Cl)c(Cl)c1Cl | 56
CCCCc1ccc(C#CC(C)N(O)C(N)=O)s1 (centres undefined) | 104 to 106
O=C1Nc2ccccc2C12COc1ccc3c(c12)OCCO3 (centres undefined) | 259 to 261
CC(C)c1cc(C(C)C)c(CC(=O)NS(=O)(=O)Oc2c(C(C)C)cc(NCCO)cc2C(C)C)c(C(C)C)c1 | 149 to 152
C#Cc1cccc(Nc2ncnc3ccc(S(=O)(=O)n4ccc(C=CC(=O)Nc5ccccc5NC(=O)OC(C)(C)C)c4)cc23)c1 | 146 to 150
CCCN(c1nc(-c2ccc(Cl)cc2Cl)c(C=O)s1)C(C)c1ccncc1 (centres undefined) | 114
CS(=O)(=O)CCCC1(C(=O)O)CCC1 | 113 to 116
O=C(O)c1ccc(N2C(=O)c3ccc(C(=O)O)cc3C2=O)cc1 | 377 to 379
Cc1cc(C=C2CCCC(=Cc3cc(C)c(O)c(C)c3)C2=O)cc(C)c1O | 225 to 226
COc1ccc2cc3ncc(C#N)c(Cl)c3cc2c1 | 242 to 243
